In patent US20140065610A1, “METHOD FOR PREDICTING CLINICAL BENEFIT IN THE TREATMENT OF NEURODEVELOPMENTAL, NEUROLOGICAL OR NEUROPSYCHIATRIC DISORDERS” (priority 2011, published 2014):

Assays:
Type in all cases: in vivo, human
[1] = tested on: adults with schizophrenia with predominantly negative symptoms; assay: Phase II GRI schizophrenia trial: change of PANSS negative symptom factor score from baseline
Procedure: FIG. 2: Change of PANSS negative symptom factor score from baseline in all patients (FIG. 2(a)) and in CFHR1-low patients (FIG. 2(b)) and CFHR1-high patients (FIG. 2(c)) using natural cutoff for CFHR1. Patients with serum concentration ≦28 ug/ml were classified as CFHR1-low and patients with serum concentration >28 ug/ml were classified as CFHR1-high. Estimates of expected response and standard error bars from MMRM analysis. Dash-dot line and circle Placebo; solid line and squares 10 mg GRI; solid line and upward-pointing triangles 30 mg GRI; dashed line and diamonds 60 mg GRI.
(§1) A Phase II study was performed in adults with schizophrenia with predominantly negative symptoms. The individuals were clinically stable and on stable treatment with second generation antipsychotics. The study was conducted at multiple sites in Brazil, France, Germany, Hungary, Japan, Mexico, Poland, Russia, and the US according to ICH Guidelines for Good Clinical Practice (ClinicalTrials.gov Identifier: NCT00616798). The study protocol was approved by the health authorities of each country and the respective ethic committees of each site. All 323 patients had provided written consent to participate in the study and 224 patients had consented to the collection and use of serum samples for exploratory biomarker analysis. After a screening and a 4-week run-in period, patients were randomized to double-blind adjunctive treatment with placebo, 10 mg, 30 mg, or 60 mg of GRI given once a day for a duration of 8 weeks, followed by 4 week follow-up period. Similar percentages of patients in the four treatment arms completed the study.
(§2) Patients were assessed at screening, week −2, baseline, weeks 1, 2, 4, 6, 8, 10 and 12. Assessments included the PANSS, Clinical Global Impression—Severity of Illness (CGI-S) and Clinical Global Impression-Global Improvement (CGI-I) for overall psychopathology 56, CGI-S and CGI-I of Negative Symptoms (CGI-S-N, CGI-I-N) for assessment of negative symptoms only 57, and standard examinations of extrapyramidal symptoms (BAS58, SAS59, AIMS60). The primary efficacy variable assessing effects on negative symptoms was the change from baseline in the PANSS negative symptom factor score 64. Secondary efficacy variables were i) proportion of patients showing a clinical response in negative symptom defined as a 20% change from baseline in the PANSS negative symptom factor score and ii) CGI-I-N. Additional analyses included change in PANSS total score, remaining PANSS factor scores 64 CGI-S and CGI-I.
Results for the overall patient cohort are shown in the top panel, for the CFHR1-low patients in the middle panel and for the CFHR1-high patients in the lower panel. […]

[2] = tested on: adults with schizophrenia with predominantly negative symptoms; assay: Phase II GRI schizophrenia trial: PANSS negative symptom factor score responder rate; conditions: after 8 weeks
Procedure: FIG. 3: Response rates of dichotomized PANSS negative symptom factor score (response defined as ≧20% drop from baseline) at week 8. Shaded background bars are response rates in overall per protocol population. Solid grey bars are response rates in CFHR1 stratified subpopulations using natural cut-off for CFHR1.
as §1, §2
For the 10 mg arm the response rate in the CFHR1-high group was 88% compared to 69% in the non-stratified group, and for the 30 mg arm the response rate in the CFHR1-high group was 78% compared to 66% in the non-stratified group.

[3] = tested on: adults with schizophrenia with predominantly negative symptoms; assay: Phase II GRI schizophrenia trial: CGI-I negative symptoms responder rate
Text: FIG. 4: Response rates of dichotomized CGI-I negative symptoms rating score (response defined as “much improved” or “very much improved”) at week 8. Shaded background bars are response rates in overall per protocol population. Solid grey bars are response rates in CFHR1 stratified subpopulations using natural cut-off for CFHR1.
FIG. 6: Response rates of dichotomized CGI-I negative symptoms rating score (response defined as “much improved” or “very much improved”) at week 8. Shaded background bars are response rates in overall per protocol population. Solid grey bars are response rates in CFHR1 stratified subpopulations using CFHR1/CFH ratio, with L (low) corresponding to CFHR1/CFH ratio below 0.01, M (medium) corresponding to CFHR1/CFH ratio above 0.01 and below 0.08 and with H (high) corresponding to CFHR1/CFH ratio above 0.08.
FIG. 9: Response rates of dichotomized CGI-I negative symptoms rating score (response defined as “much improved” or “very much improved”) at week 8. Shaded background bars are response rates in overall per protocol population from those who had consented for DNA sample. Solid grey bars are response rates in CFHR1 stratified subpopulations using genetic status of CFHR1 allele.
as §1, §2
As a secondary endpoint in the clinical trial the Clinical Global Impression (CGI) improvement of negative symptoms between baseline and week 8 evaluation was used. This outcome measure was treated as a binary variable. […] The analysis was performed on the combined placebo, 10 mg and 30 mg biomarker population using the per protocol (PP) population. Explanatory variables for this analysis are the baseline measurements of all measured proteins, the treatment (placebo or pooled 10 mg/30 mg treatment) and the treatment-protein interaction. A logistic regression model was used as predictor.
For the 10 mg arm the response rate in the CFHR1-high group was 69% compared to 39% in the non-stratified group, and for the 30 mg arm the response rate in the CFHR1-high group was 67% compared to 45% in the non-stratified group. […]

[4] = 10 mg arm, non-stratified group
[5] = 30 mg arm, non-stratified group

C[C@H](Oc1ccc(S(C)(=O)=O)cc1C(=O)N1CCN(c2ncc(C(F)(F)F)cc2F)CC1)C(F)(F)F [GRI, [4-(3-fluoro-5-trifluoromethyl-pyridin-2-yl)-piperazin-1-yl]-[5-methanesulfonyl-2-((S)-2,2,2-trifluoro-1-methyl-ethoxy)-phenyl]-methanone]
effect size, change in PANSS negative symptom factor score from baseline ([1]; 10 mg arm, CFHR1-high group (serum CFHR1 >28 ug/ml), 8 weeks, vs placebo): −1.01 | effect size, change in PANSS negative symptom factor score from baseline [1, 4]: −0.42 | effect size, change in PANSS negative symptom factor score from baseline ([1]; 30 mg arm, CFHR1-high group (serum CFHR1 >28 ug/ml)): −0.76 | effect size, change in PANSS negative symptom factor score from baseline [1, 5]: −0.47 | response rate, PANSS negative symptom factor score (at least 20% decrease from baseline) ([2]; 10 mg arm, CFHR1-high group): 88% | response rate, PANSS negative symptom factor score (at least 20% decrease from baseline) [2, 4]: 69% | response rate, PANSS negative symptom factor score (at least 20% decrease from baseline) ([2]; 30 mg arm, CFHR1-high group): 78% | response rate, PANSS negative symptom factor score (at least 20% decrease from baseline) [2, 5]: 66% | response rate, CGI of negative symptoms ([3]; 10 mg arm, CFHR1+/+ group (genetic status)): 57% | response rate, CGI of negative symptoms ([3]; 10 mg arm, CFHR1-high group (natural cut-off 28 ug/ml), week 8): 69% | response rate, CGI of negative symptoms ([3]; 10 mg arm, H subgroup (CFHR1/CFH ratio above 0.08)): 69% | response rate, CGI of negative symptoms ([3]; 10 mg arm, L group (CFHR1/CFH ratio below 0.01), small sample size): 0% | response rate, CGI of negative symptoms ([3]; 10 mg arm, M subgroup (CFHR1/CFH ratio medium)): 19% | response rate, CGI of negative symptoms ([3]; 10 mg arm, non-stratified group of patients who consented for DNA sample): 39% | response rate, CGI of negative symptoms ([3]; 10 mg arm, non-stratified serum subgroup, week 8): 39% | response rate, CGI of negative symptoms ([3]; 30 mg arm, CFHR1+/+ group (genetic status)): 67% | response rate, CGI of negative symptoms ([3]; 30 mg arm, CFHR1-high group (natural cut-off 28 ug/ml), week 8): 67% | response rate, CGI of negative symptoms ([3]; 30 mg arm, H subgroup (CFHR1/CFH ratio above 0.08)): 67% | response rate, CGI of negative symptoms ([3]; 30 mg arm, L group (CFHR1/CFH ratio below 0.01), small sample size): 0% | response rate, CGI of negative symptoms ([3]; 30 mg arm, M subgroup (CFHR1/CFH ratio medium)): 28% | response rate, CGI of negative symptoms ([3]; 30 mg arm, non-stratified group of patients who consented for DNA sample): 46% | response rate, CGI of negative symptoms ([3]; 30 mg arm, non-stratified serum subgroup, week 8): 45% | response rate, CGI of negative symptoms ([3]; 60 mg arm, H subgroup (CFHR1/CFH ratio above 0.08)): 33% | response rate, CGI of negative symptoms ([3]; 60 mg arm, L group (CFHR1/CFH ratio below 0.01), small sample size): 100% | response rate, CGI of negative symptoms ([3]; 60 mg arm, M subgroup (CFHR1/CFH ratio medium)): 25% | response rate, CGI of negative symptoms ([3]; 60 mg arm, non-stratified serum subgroup, week 8): 34%
